Measurements from PMC7180948, “New Insights into 4-Anilinoquinazolines as Inhibitors of Cardiac Troponin I–Interacting Kinase (TNNi3K)” (Molecules, 2020).

Legend:
Assay in all cases: biochemical
Design in all cases: KINOMEscan competition binding panel (Eurofins DiscoverX), single concentration, percent inhibition
Details in all cases: read-out: 15 at 1 µM % inhibition
[1] = molecular target: CHEK1 (Homo sapiens, UniProt O14757)
Method in brief: (§1)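 Compounds were submitted at 1 µM to a KINOMEscan assay covering more than 400 human kinases. The screen served to define the selectivity profile.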

[2] = molecular target: FLT3(D835Y) (Homo sapiens, UniProt P36888, D835Y)
Method in brief: as §1

[3] = molecular target: ROCK2 (Homo sapiens, UniProt O75116)
Method in brief: as §1

[4] = molecular target: KIT (Homo sapiens, UniProt P10721)
Method in brief: as §1

[5] = molecular target: CLK3 (Homo sapiens, UniProt P49761)
Method in brief: as §1

[6] = molecular target: CDK7 (Homo sapiens, UniProt P50613)
Method in brief: as §1

[7] = molecular target: RET(M918T) (Homo sapiens, UniProt P07949, M918T)
Method in brief: as §1

[8] = molecular target: T1, MEK2 (Homo sapiens, UniProt P36507)
T1 construct: gene MAP2K2
Method in brief: as §1

[9] = molecular target: PKMYT1 (Homo sapiens, UniProt Q99640)
Method in brief: as §1

[10] = molecular target: SLK (Homo sapiens, UniProt Q9H2G2)
SLK, sequence (Q9H2G2 whole entry): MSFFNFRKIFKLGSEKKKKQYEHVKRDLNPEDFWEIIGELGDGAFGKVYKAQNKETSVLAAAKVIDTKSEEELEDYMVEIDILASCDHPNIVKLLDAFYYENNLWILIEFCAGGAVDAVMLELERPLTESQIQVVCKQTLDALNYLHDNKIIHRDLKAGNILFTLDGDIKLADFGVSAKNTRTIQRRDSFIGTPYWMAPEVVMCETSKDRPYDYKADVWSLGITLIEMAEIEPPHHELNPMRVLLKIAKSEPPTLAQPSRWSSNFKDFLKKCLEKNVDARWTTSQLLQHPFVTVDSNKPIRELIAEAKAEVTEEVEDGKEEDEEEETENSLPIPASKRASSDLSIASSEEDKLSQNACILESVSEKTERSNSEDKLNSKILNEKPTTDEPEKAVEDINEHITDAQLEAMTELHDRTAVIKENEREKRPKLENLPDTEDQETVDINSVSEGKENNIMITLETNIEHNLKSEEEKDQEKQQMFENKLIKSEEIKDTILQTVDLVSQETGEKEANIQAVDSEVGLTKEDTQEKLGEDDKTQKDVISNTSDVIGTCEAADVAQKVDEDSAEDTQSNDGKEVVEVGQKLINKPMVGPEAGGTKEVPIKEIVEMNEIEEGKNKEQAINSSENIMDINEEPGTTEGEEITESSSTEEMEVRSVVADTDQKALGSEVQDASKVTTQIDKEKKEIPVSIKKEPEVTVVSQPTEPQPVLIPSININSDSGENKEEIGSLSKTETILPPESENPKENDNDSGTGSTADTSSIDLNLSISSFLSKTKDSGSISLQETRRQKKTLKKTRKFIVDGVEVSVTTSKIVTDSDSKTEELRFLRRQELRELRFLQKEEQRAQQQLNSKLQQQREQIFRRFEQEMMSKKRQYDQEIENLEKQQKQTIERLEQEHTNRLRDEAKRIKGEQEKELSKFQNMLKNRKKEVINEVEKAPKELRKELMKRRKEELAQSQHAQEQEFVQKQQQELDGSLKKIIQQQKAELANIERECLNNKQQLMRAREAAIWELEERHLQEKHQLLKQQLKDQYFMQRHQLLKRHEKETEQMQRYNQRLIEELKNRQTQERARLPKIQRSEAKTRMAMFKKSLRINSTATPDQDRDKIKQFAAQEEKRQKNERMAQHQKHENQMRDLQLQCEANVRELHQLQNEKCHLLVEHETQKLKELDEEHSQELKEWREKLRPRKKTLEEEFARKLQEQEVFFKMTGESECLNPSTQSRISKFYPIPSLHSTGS
Method in brief: as §1

[11] = molecular target: LATS1 (Homo sapiens, UniProt O95835)
LATS1, sequence (O95835 whole entry): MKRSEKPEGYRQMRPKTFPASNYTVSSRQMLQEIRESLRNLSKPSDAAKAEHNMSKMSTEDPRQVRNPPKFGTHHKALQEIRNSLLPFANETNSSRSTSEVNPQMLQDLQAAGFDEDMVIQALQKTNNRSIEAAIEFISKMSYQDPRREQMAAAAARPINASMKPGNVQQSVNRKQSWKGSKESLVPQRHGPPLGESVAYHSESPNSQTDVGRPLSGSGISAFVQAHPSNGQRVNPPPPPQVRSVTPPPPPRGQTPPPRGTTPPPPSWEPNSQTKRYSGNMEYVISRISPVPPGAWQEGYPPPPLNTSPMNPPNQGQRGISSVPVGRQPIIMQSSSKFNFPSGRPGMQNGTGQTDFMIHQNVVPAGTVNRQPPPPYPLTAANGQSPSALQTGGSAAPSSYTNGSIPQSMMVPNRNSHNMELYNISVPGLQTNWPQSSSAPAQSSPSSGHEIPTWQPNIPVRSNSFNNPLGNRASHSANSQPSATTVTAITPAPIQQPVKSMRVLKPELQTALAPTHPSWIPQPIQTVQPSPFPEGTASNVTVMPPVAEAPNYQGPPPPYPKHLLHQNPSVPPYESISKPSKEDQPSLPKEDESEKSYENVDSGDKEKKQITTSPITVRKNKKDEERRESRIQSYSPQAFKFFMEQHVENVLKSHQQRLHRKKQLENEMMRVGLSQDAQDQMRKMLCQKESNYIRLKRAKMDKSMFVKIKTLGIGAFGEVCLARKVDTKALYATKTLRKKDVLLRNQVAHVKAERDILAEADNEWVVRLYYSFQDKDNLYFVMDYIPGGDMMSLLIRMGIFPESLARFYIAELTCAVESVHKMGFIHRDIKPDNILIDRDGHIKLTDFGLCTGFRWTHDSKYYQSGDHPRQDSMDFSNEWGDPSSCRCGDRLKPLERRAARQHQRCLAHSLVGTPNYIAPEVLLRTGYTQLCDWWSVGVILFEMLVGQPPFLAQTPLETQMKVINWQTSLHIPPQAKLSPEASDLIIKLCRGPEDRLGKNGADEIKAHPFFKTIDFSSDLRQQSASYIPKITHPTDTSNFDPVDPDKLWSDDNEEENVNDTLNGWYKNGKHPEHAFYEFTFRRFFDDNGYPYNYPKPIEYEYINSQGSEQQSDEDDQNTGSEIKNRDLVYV
Method in brief: as §1

[12] = molecular target: T2, AMPK-alpha2 (Homo sapiens, UniProt P54646)
T2 construct: gene PRKAA2
Method in brief: as §1

[13] = molecular target: T3, SIK (Homo sapiens, UniProt P57059)
T3 construct: gene SIK1
Method in brief: as §1

[14] = molecular target: CSNK1E (Homo sapiens, UniProt P49674)
Method in brief: as §1

[15] = molecular target: T4, MLK3 (Homo sapiens, UniProt Q16584)
T4 construct: gene MAP3K11
T4 sequence (Q16584 whole entry): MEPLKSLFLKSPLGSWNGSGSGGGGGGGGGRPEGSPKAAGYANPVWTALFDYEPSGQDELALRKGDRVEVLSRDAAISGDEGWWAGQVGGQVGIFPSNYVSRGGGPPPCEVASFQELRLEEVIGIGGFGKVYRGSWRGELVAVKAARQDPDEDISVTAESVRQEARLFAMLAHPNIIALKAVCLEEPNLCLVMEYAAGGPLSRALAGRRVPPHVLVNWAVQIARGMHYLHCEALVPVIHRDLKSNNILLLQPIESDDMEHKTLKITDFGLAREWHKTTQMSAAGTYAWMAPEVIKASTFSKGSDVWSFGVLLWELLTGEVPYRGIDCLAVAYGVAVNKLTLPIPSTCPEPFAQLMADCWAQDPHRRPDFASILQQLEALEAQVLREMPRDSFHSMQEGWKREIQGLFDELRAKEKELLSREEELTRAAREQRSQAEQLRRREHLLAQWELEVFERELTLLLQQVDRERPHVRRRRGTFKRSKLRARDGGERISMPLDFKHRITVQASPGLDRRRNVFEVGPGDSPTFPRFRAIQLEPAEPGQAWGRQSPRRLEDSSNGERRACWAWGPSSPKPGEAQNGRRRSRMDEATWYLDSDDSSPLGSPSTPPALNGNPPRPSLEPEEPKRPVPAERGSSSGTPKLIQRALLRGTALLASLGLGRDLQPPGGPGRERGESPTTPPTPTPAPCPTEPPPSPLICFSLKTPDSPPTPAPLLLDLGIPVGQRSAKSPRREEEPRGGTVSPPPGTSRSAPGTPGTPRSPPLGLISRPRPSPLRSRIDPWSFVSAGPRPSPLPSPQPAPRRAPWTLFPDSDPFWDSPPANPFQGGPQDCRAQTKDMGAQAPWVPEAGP
Method in brief: as §1

[16] = molecular target: T5, SGK (Homo sapiens, UniProt O00141)
T5 construct: gene SGK1
Method in brief: as §1

[17] = molecular target: CSF1R-autoinhibited (Homo sapiens, UniProt P07333)
Method in brief: as §1

[18] = molecular target: WNK1 (Homo sapiens, UniProt Q9H4A3)
Method in brief: as §1

[19] = molecular target: CSNK1G1 (Homo sapiens, UniProt Q9HCP0)
Method in brief: as §1

[20] = molecular target: T6, DMPK2 (Homo sapiens, UniProt Q6DT37)
T6 construct: gene CDC42BPG
Method in brief: as §1

[21] = molecular target: T7, TYK2(JH2domain-pseudokinase) (Homo sapiens, UniProt P29597)
T7 construct: JH2domain-pseudokinase
Method in brief: as §1

[22] = molecular target: T8, PIP5K2B (Homo sapiens, UniProt P78356)
T8 construct: gene PIP4K2B
T8 sequence (P78356 whole entry): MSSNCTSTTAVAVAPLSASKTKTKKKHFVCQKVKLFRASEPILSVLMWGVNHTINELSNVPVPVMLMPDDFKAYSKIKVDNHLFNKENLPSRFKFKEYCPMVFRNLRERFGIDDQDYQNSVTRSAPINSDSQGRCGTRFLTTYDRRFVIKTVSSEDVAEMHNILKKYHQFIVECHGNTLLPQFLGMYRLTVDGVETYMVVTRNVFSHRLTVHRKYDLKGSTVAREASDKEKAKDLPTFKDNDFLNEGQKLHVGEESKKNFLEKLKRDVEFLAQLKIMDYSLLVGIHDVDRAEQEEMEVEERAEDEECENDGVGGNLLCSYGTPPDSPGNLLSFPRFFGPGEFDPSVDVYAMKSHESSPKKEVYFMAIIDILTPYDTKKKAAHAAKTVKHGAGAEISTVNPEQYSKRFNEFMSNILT
Method in brief: as §1

[23] = molecular target: T9, ARK5 (Homo sapiens, UniProt O60285)
T9 construct: gene NUAK1
T9 sequence (O60285 whole entry): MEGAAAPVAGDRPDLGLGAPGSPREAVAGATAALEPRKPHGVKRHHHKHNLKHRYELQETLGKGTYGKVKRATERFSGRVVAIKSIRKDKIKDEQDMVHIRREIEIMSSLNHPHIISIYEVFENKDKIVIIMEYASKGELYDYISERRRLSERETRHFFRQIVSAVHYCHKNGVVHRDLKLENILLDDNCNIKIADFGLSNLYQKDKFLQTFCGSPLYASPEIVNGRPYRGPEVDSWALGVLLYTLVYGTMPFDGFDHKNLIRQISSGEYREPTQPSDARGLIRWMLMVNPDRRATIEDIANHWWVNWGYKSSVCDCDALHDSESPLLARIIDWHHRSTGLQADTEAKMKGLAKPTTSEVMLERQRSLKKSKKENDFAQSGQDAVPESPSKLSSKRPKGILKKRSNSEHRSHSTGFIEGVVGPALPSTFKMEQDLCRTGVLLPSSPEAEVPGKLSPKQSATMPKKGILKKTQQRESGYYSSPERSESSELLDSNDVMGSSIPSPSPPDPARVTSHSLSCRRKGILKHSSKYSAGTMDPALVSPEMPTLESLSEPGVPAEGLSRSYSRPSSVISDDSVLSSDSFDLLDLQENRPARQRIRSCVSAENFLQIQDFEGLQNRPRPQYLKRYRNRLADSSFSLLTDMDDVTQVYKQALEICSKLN
Method in brief: as §1

[24] = molecular target: FLT3(D835V) (Homo sapiens, UniProt P36888, D835V)
Method in brief: as §1

CHEK1, sequence (O14757 whole entry): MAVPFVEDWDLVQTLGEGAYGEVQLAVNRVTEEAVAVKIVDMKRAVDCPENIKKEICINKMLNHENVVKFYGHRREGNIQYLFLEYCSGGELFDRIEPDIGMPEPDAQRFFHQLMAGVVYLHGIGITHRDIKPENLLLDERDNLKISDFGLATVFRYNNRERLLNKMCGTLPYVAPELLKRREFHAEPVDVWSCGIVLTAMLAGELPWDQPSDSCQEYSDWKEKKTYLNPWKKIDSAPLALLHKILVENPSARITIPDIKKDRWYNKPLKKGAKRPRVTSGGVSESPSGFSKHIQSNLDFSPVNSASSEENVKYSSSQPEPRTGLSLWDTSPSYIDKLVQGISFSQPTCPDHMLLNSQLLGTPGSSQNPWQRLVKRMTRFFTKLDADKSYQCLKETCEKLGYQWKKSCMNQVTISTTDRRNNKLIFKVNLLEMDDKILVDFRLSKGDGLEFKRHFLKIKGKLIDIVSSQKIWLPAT

inhibition at 1 µM [1]: 1%
inhibition at 1 µM [2]: 4%
inhibition at 1 µM [3]: 5%
inhibition at 1 µM [4]: 10%
inhibition at 1 µM [5]: 0%
inhibition at 1 µM [6]: 18%
inhibition at 1 µM [7]: 0%
inhibition at 1 µM [8]: 10%
inhibition at 1 µM [9]: 0%
inhibition at 1 µM [10]: 0%
inhibition at 1 µM [11]: 14%
inhibition at 1 µM [12]: 2%
inhibition at 1 µM [13]: 13%
inhibition at 1 µM [14]: 0%
inhibition at 1 µM [15]: 0%
inhibition at 1 µM [16]: 39%
inhibition at 1 µM [17]: 32%
inhibition at 1 µM [18]: 22%
inhibition at 1 µM [19]: 0%
inhibition at 1 µM [20]: 5%
inhibition at 1 µM [21]: 0%
inhibition at 1 µM [22]: 0%
inhibition at 1 µM [23]: 0%
inhibition at 1 µM [24]: 37%
SMILES: CNS(=O)(=O)c1ccc(N(C)C)c(Nc2nc(C)nc3cc(OC)c(OC)cc23)c1 [compound 15, 3-((6,7-dimethoxy-2-methylquinazolin-4-yl)amino)-4-(dimethylamino)-N-methylbenzenesulfonamide]
